Experimental data taken from ChEMBL document CHEMBL1201862, “PubChem BioAssay data set” (2004).
Activity calls are given as the source filed them.

Tests used:
[1] = target: Melanin-concentrating hormone receptor 1 (Homo sapiens, UniProt Q99705); assay: Fluorescence-based counterscreen for antagonists of the G-protein coupled receptor 7 (GPR7): cell-based high throughput dose response assay to identify antagonists of the melanin-concentrating hormone receptor 1 (MCHR1).; assay type: functional
[2] = target: Cytochrome P450 3A4 (Homo sapiens, UniProt P08684);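 note: CYP3A4 tested as one member of a cytochrome P450 panel screen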
Cytochrome P450 3A4, sequence (P08684 whole entry): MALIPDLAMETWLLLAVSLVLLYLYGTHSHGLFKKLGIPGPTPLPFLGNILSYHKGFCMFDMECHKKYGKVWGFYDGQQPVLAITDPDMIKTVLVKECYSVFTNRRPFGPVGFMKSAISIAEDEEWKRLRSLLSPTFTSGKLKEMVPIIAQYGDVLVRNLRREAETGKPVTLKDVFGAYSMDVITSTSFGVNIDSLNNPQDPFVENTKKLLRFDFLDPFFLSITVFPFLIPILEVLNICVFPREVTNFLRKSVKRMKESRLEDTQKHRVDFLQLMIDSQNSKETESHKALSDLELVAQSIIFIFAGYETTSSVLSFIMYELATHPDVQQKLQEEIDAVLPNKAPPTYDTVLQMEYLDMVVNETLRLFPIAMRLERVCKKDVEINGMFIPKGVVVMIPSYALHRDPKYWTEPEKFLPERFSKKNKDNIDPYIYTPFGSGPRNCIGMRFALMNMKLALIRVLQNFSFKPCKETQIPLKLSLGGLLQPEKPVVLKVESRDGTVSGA

[3] = target: T1, Sentrin-specific protease 1 (Homo sapiens, UniProt Q9P0U3); assay: potency of human SENP1 inhibitors, dose response, biochemical, kinetic FRET (AID 651697); assay type: functional; conditions: read-out: IC50_Mean
T1 sequence (Q9P0U3 whole entry): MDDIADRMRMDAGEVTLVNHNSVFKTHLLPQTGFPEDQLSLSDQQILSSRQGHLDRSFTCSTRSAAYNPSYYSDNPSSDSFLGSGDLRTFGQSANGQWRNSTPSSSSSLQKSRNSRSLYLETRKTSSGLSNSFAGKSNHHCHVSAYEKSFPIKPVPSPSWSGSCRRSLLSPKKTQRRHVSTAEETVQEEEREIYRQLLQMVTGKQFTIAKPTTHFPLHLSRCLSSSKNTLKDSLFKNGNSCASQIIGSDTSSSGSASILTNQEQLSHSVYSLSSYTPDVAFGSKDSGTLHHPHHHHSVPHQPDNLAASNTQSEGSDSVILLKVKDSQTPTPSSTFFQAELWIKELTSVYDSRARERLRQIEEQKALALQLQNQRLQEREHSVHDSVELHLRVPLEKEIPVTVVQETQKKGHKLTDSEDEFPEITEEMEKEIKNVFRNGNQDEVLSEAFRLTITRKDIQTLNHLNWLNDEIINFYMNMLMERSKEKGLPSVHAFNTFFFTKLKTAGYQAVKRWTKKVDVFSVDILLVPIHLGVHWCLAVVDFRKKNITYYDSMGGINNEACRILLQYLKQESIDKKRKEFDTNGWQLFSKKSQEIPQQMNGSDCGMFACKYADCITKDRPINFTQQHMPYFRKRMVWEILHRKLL

[4] = target: T1, Sentrin-specific protease 1; assay: Dose response confirmation of small molecule inhibitors of the catalytic domain of the SUMO protease, SENP1 in a FRET assay.; assay type: functional; conditions: read-out: IC50_Mean
[5] = cytotoxicity in HEK-293T cells, dose response, cytotoxicity control for BCR NF-kB inhibitor project, luminescence, B-cell screen hits (AID 489021); assay type: functional, cell-based;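 note: HEK-293T cells carrying an NF-kB luciferase reporter; cells exposed to compound for about 14 hours before viability readout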
[6] = target: T2, Bcl-2-related protein A1 (Mus musculus, UniProt Q07440); assay: Bfl-1 binding inhibitors, SAR follow-up, biochemical, fluorescence polarization (AID 1070)
T2 sequence (Q07440 whole entry): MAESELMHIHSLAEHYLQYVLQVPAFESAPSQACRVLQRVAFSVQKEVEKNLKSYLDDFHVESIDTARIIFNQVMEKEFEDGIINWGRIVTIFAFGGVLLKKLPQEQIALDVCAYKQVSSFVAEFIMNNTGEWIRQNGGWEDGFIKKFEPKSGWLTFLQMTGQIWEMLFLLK

[7] = target: Glyceraldehyde-3-phosphate dehydrogenase (Homo sapiens, UniProt P04406)
Glyceraldehyde-3-phosphate dehydrogenase, sequence (P04406 whole entry): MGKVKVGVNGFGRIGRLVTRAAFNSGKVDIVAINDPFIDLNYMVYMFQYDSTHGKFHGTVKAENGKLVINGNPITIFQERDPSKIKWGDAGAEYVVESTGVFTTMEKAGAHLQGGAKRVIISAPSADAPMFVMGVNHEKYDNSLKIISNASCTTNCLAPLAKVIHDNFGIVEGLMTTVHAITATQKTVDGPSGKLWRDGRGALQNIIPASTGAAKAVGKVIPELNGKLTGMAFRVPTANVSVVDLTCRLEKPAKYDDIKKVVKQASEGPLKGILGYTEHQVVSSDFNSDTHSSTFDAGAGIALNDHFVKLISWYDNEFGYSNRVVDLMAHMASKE

[8] = target: T2, Bcl-2-related protein A1; assay: Bfl-1 inhibitors blocking BH3 peptide binding, confirmation, biochemical, TR-FRET, mouse Bfl-1 (AID 621);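 note: TR-FRET binding of GST-Bfl-1 to FITC-labelled Bid peptide via terbium antibody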
[9] = target: Metabotropic glutamate receptor 4 (Rattus norvegicus, UniProt P31423); assay: Modulation of the Metabotropic Glutamate Receptor mGluR4: Rat PAM Potency. [Related pubchem assays (depositor defined):AID2437, AID2807]; assay type: functional
Metabotropic glutamate receptor 4, sequence (P31423 whole entry): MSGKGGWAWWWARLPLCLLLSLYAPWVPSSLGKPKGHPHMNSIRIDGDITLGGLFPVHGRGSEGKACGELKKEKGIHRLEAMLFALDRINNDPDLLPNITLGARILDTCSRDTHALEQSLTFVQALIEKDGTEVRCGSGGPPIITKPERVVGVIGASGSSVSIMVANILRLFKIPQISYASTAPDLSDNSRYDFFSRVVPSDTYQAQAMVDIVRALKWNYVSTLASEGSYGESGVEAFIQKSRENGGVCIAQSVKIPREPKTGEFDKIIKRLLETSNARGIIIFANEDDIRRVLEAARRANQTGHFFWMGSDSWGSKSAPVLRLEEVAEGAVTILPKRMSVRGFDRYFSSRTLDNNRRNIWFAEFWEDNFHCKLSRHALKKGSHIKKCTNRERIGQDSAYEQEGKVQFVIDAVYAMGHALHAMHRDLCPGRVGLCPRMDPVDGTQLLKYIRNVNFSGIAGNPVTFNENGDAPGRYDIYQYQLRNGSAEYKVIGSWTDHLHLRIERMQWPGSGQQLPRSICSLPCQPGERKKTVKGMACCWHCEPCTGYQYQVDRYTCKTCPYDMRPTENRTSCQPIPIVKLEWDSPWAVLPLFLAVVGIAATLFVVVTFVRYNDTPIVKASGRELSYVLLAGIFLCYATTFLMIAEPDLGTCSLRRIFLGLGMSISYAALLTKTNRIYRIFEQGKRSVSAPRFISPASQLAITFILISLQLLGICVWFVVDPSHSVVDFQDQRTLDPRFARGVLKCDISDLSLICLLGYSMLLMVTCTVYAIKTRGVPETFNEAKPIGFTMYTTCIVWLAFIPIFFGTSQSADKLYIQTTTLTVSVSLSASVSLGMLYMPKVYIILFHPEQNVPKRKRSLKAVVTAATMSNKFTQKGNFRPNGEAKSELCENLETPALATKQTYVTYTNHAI

[10] = target: T3, SUMO-activating enzyme (Homo sapiens, UniProt Q9UBT2); assay: inhibitors of in vitro SUMOylation cascade, primary screen, biochemical, HTRF, uHTS (AID 2006); assay type: protein-complex assay
T3 sequence (Q9UBE0 whole entry): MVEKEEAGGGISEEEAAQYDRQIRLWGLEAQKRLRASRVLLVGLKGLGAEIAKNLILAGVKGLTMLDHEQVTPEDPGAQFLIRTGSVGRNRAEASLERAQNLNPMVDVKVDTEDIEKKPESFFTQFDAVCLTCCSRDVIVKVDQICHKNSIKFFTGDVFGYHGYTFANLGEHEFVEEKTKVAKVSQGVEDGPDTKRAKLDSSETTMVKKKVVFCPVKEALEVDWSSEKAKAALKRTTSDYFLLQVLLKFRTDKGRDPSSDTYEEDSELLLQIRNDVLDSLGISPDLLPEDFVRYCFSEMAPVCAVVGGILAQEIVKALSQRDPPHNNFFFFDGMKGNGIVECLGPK
T3 sequence (Q9UBT2 whole entry): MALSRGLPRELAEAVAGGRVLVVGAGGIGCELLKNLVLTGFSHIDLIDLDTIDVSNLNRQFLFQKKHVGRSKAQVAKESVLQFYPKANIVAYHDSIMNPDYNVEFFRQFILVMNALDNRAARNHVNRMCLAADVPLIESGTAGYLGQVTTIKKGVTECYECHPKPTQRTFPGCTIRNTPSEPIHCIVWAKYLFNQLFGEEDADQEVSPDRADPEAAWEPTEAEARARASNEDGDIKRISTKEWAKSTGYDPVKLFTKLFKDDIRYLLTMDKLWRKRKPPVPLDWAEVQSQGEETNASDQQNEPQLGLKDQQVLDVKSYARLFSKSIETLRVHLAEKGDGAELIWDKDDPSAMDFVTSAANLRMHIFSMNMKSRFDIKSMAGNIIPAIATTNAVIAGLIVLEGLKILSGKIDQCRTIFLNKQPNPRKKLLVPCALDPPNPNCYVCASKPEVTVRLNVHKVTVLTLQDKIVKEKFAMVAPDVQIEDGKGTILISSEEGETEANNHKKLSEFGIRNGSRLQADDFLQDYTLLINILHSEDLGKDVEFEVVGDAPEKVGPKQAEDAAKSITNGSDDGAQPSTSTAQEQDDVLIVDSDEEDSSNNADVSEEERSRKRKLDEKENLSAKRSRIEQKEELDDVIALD

[11] = target: T4, Rac GTPase-activating protein 1 (Homo sapiens, UniProt Q9H0H5); assay: MgcRacGAP GTPase-activating activity inhibitors, confirmation, biochemical, ADP Hunter fluorescence, primary and confirmatory (AID 624330); assay type: functional
T4 sequence (Q9H0H5 whole entry): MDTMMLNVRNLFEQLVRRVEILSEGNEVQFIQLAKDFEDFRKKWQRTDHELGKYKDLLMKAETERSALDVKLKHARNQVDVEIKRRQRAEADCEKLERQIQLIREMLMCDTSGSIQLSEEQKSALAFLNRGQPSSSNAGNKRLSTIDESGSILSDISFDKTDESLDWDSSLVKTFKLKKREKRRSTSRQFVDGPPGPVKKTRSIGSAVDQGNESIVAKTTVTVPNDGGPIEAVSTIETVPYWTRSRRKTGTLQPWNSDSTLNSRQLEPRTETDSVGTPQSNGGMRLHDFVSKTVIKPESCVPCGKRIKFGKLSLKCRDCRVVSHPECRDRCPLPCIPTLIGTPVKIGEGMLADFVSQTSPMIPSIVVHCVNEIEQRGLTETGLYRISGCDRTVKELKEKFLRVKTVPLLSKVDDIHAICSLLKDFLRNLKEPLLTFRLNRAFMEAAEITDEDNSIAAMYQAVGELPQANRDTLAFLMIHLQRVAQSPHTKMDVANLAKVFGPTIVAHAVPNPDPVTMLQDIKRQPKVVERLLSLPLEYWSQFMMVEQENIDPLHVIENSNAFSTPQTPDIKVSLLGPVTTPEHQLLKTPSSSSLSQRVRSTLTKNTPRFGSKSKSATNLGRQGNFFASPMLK

[12] = inhibitors of Bluetongue virus cytopathic effect, confirmation, arbovirus, BSR cells (AID 1250); assay type: functional;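 note: protection from viral cytopathic effect measured as cell viability by ATP luminescence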
[13] = cells; assay type: functional, cell-based
[14] = target: T5, Nuclear receptor subfamily 0 group B member 1 (Homo sapiens, UniProt P51843); assay type: functional, cell-based;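 note: HEK293T cells transfected with SF-1 and DAX-1 plus StAR promoter luciferase reporter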
T5 sequence (P51843 whole entry): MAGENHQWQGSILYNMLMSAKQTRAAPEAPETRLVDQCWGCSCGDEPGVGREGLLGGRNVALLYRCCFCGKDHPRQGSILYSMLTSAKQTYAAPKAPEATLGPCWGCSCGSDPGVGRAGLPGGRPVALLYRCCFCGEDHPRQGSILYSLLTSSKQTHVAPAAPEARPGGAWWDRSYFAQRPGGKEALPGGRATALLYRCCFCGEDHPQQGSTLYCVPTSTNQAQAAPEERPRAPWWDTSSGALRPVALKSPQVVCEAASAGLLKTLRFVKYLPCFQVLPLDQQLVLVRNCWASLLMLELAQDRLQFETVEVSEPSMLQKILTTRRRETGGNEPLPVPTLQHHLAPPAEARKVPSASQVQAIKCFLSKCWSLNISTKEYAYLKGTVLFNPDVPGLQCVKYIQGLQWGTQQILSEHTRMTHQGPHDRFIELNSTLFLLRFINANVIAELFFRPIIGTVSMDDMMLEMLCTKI

[15] = target: Protein Rev (Human immunodeficiency virus type 1 group M subtype B (isolate WMJ22)(HIV-1), UniProt P05866); assay: HIV-1 Rev-RRE RNA binding disruptors, dose response, biochemical, protein-RNA interaction (AID 842); parameters: species or system Human immunodeficiency virus 1
Protein Rev, sequence (P05866 whole entry): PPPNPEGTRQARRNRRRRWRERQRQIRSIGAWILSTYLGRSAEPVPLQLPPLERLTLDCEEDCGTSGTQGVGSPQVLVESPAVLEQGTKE

[16] = target: Lysosomal acid glucosylceramidase (Homo sapiens, UniProt P04062); assay: Dose response cell-based high throughput screening assay to identify enhancers of beta-glucosidase activity. [Related pubchem assays: 784 ]; assay type: functional
Lysosomal acid glucosylceramidase, sequence (P04062 whole entry): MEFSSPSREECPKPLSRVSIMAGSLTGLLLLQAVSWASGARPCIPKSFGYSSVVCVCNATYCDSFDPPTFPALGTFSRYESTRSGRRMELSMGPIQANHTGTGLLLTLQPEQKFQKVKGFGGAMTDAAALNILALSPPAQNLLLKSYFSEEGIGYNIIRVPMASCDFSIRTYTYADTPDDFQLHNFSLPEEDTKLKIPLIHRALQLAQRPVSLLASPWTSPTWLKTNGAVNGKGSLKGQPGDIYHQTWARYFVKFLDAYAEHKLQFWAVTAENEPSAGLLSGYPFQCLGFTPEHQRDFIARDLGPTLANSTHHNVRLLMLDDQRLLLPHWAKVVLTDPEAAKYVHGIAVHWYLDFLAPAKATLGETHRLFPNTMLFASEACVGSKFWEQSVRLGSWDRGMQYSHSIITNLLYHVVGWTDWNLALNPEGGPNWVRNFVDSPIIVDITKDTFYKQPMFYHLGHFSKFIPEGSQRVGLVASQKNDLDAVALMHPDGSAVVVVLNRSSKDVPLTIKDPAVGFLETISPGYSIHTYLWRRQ

[17] = target: T3, SUMO-activating enzyme; assay: SUMOylation inhibitor hit validation, confirmation, SUMOylation inhibitor project, biochemical, AlphaScreen (AID 2018); assay type: functional
[18] = cells
[19] = target: Induced myeloid leukemia cell differentiation protein Mcl-1 (Homo sapiens, UniProt Q07820); assay type: functional
Induced myeloid leukemia cell differentiation protein Mcl-1, sequence (Q07820 whole entry): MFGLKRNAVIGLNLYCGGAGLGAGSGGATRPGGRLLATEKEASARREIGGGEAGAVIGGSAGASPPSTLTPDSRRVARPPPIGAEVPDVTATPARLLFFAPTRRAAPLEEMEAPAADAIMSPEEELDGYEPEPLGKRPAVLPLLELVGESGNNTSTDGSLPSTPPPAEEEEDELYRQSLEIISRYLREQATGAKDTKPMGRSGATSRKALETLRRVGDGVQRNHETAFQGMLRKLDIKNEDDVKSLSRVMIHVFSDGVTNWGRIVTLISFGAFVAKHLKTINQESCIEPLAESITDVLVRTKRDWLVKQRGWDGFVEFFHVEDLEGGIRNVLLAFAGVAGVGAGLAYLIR

[20] = growth suppression of PTEN-null colon cells, dose response, cell-based, HCT116 PTEN knockout (AID 1047); assay type: functional;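 note: HCT116 colon tumor cells with PTEN knocked out; cells exposed to compound for 60 hours before readout; potency for loss of cell viability measured by luminescence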
[21] = system: Vero; assay: cells; assay type: functional; conditions: Chlorocebus sabaeus
[22] = target: Eukaryotic translation initiation factor 4E (Mus musculus, UniProt P63073); assay: eIF4E–eIF4G protein interaction inhibitors, dose response, biochemical, TR-FRET (AID 855); assay type: functional;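 note: potency for disrupting eIF4E binding to eIF4GI seen as loss of FRET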
Eukaryotic translation initiation factor 4E, sequence (P63073 whole entry): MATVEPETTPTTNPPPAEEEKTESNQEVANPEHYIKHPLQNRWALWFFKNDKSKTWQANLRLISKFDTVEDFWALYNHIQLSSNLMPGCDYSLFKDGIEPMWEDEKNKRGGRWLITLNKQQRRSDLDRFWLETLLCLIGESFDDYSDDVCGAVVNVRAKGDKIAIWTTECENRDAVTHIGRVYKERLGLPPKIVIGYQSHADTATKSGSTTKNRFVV

[23] = Luminescence Cell-Based Dose Retest to Confirm Inhibitors of Cancer Stem Cells. [Related pubchem assays (depositor defined):AID2717, AID2721]; assay type: functional; conditions: Homo sapiens
[24] = growth suppression of beta-catenin-knockout colon cells, dose response, cell-based, HCT116, human colon tumor (AID 1045); assay type: functional;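 note: HCT116 colon tumor cells with beta catenin knocked out; cells exposed to compound for 60 hours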
[25] = HEp-2 cell cytotoxicity, dose response, cytotoxicity control for RSV inhibitor project, HTS (AID 2410); assay type: functional; conditions: human respiratory syncytial virus
[26] = target: Glucose-6-phosphate 1-dehydrogenase (Homo sapiens, UniProt P11413); assay: human G6PD enzyme inhibitors, dose response, selectivity assay for P. falciparum G6PD inhibitor project, biochemical, fluorescence (AID 504792); assay type: functional
Glucose-6-phosphate 1-dehydrogenase, sequence (P11413 whole entry): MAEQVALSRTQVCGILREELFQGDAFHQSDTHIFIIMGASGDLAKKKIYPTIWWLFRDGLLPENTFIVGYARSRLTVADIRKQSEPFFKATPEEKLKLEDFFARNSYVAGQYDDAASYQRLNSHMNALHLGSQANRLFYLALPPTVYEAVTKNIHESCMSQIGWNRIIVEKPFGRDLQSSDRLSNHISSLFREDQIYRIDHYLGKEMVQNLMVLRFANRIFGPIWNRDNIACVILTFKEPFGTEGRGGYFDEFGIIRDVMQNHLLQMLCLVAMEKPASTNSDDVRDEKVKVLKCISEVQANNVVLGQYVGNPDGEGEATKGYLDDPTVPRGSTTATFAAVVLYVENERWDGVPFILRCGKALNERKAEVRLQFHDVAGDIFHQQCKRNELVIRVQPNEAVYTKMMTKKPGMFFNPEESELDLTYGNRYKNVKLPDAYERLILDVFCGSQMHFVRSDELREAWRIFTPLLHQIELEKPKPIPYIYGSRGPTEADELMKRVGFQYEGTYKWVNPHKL

[27] = target: Kallikrein-7 (Homo sapiens, UniProt P49862); assay: Fluorescence Intensity-based biochemical primary high throughput dose response assay to identify activators of kallikrein-7 (K7) zymogen.
Kallikrein-7, sequence (P49862 whole entry): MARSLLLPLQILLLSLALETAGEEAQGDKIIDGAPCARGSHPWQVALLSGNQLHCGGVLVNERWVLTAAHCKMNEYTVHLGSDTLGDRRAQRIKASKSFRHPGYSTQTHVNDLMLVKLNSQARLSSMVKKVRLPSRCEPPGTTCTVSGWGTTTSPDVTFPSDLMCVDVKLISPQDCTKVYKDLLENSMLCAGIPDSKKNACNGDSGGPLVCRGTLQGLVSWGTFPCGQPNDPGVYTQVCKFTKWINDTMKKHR

[28] = target: T6, DNA repair and recombination protein RAD54-like (Homo sapiens, UniProt Q92698); assay: inhibitors of human RAD54 branch migration, confirmation, biochemical, fluorescence, cherry-picked samples, dose series (AID 651657); assay type: functional
T6 sequence (Q92698 whole entry): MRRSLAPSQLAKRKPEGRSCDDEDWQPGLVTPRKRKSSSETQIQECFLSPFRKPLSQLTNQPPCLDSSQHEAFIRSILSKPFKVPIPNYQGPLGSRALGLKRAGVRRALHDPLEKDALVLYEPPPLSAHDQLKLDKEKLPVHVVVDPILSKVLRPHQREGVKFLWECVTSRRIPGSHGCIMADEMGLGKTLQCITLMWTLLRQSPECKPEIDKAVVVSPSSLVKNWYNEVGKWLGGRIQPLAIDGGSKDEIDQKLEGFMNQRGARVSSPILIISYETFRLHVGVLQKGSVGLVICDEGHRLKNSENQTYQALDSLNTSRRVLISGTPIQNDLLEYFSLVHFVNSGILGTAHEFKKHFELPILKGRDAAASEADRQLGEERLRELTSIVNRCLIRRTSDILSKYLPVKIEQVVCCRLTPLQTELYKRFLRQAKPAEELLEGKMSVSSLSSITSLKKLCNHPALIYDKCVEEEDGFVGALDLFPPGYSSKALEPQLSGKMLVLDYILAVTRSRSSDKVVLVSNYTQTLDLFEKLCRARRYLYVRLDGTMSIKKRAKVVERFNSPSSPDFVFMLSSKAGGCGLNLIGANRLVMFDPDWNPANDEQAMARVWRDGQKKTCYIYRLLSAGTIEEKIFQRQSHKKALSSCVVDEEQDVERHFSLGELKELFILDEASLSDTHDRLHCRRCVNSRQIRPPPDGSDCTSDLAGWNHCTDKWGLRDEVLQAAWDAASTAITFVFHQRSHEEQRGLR

In the case of `COCCCNC(=O)/C=C1\Sc2ccccc2N(Cc2ccccc2F)C1=O`, the IC50 [1] is reported as 28.8 µM (not active).
For `CCN1C(=O)c2cccc3c(NC(=O)c4cccc(N5C(=O)CCC5=O)c4)ccc1c23`, the AC50 [2] was 22.4 µM (inconclusive), the IC50 [3] was 17.9 µM (active) and the IC50 [4] was 11.3 µM (active). For the same compound, the IC50 [5] was > 80 µM (inactive).
In the case of `CN1CCN(C2=C(Cl)C(=O)N(c3ccnc(Cl)c3)C2=O)CC1`, the IC50 [6] is reported as 29 µM (active), the IC50 [7] is reported as > 100 µM (not active) and the IC50 [8] is reported as 35.6 µM (active).
In the case of `O=C(Nc1ccc(N2C(=O)CC(c3ccccc3)C2=O)c(Cl)c1)c1ccccn1` (centres undefined), the EC50 [9] is reported as 0.49 µM (active).
In the case of `O=[N+]([O-])c1cc([N+](=O)[O-])c2nonc2c1Nc1ccc(O)cc1`, the IC50 [10] is reported as > 100 µM (inactive) and the IC50 [11] is reported as 56.8 µM (active).
In the case of `COc1ccc(/C=C/C(=O)Nc2ccccc2C(=O)O)cc1`, the IC50 [12] is reported as 31 µM (active), the IC50 [13] is reported as > 67.5 µM (inactive) and the IC50 [14] is reported as > 67.5 µM (inactive).
In the case of `Cc1cccc(N2C(=O)C(Cl)=C(N3CCN[C@@H](C)C3)C2=O)c1`, the IC50 [7] is reported as > 50 µM (inconclusive).
With `CC(C)COc1ccc(Cc2cnc(N)nc2N)cc1` the IC50 [15] was > 79.4 µM (not active).
With `CC1=C(C(N)=O)C(c2cccs2)n2nc(-c3cccc(C)c3)nc2N1` (centres undefined) the EC50 [16] was > 50 µM (not active).
In the case of `COc1cc2c(-c3ccc(O)cc3)nc3c(c(C)nn3-c3ccccc3)c2cc1OC`, the IC50 [17] is reported as 2.06 µM (active), the IC50 [18] is reported as 19.1 µM (active) and the IC50 [19] is reported as < 0.4 µM (active). The EC50 [20] was 9.2 µM (active), the CC50 [21] was 19.7 µM (active) and the IC50 [22] was 53.5 µM (inactive). The IC50 [10] was 7.67 µM (active), the AC50 [23] was 1.23 µM (active) and the EC50 [24] was 8.96 µM (active). For the same compound, the CC50 [25] was 9.63 µM (active).
In the case of `NCCCC(=O)N1c2ccccc2Sc2ccccc21`, the IC50 [15] is reported as > 79.4 µM (not active).
With `O=C(Nc1sc2c(c1C(=O)O)CCC2)c1ccc(F)cc1` the IC50 [12] was 31.4 µM (active) and the IC50 [26] was > 80 µM (inactive).
For `O=C(Nc1ccc(Cl)c(Cl)c1)c1ccncn1`, the EC50 [9] was 3.37 µM (active).
In the case of `CCOCCCn1c(=N)c(C(=O)NCCN2CCOCC2)cc2c(=O)n3cccc(C)c3nc21`, the EC50 [27] is reported as > 69.5 µM (inactive), the EC50 [16] is reported as > 50 µM (not active) and the AC50 [28] is reported as 25.3 µM (active).
